Converted amounts (≈) assume the structure as drawn. Like-named read-outs stand apart in the source and are kept apart here.
Key:
[1] = tested on: integrin expression in ES2 cells; assay: Microarray gene expression, Table 6; format: cell-based, human; details: for ITGA3 integrin, alpha 3, gene expression ratio to no drug control (D): probe 201474_s_at; for ITGAV integrin, alpha V (vitronectin receptor), gene expression ratio to no drug control (D): probe 202351_at; for ITGB5 Integrin, beta 5, gene expression ratio to no drug control (D): probe 214021_x_at; for CD47 antigen (integrin-associated signal transducer), gene expression ratio to no drug control (D): probe 227259_at; for ITGB2 integrin, beta 2, gene expression ratio to no drug control (D): probe 1555349_a_at; for expression ratio to the control, integrin family: span over probes of Table 6
Description: (§1) Y/D is the ratio (in folds) of gene expression in cells treated with compound Y as compared with those of the no drug control (D),
(§2) YM/D is the ratio of gene expression in cells treated with compound YM (ACH-Y, Y without sugar moiety) compared with those of the no drug control (D)
(§3) Cell culture and drug-treatment.: ES2 cells were seeded in a T-25 flask with 4.5 million cells per flask for 24 hours. Cell culture was replaced with fresh medium with xanifolia-Y (Y) or DMSO no drug control (D) for 24 hours. Cells were then harvested for RNA isolation. Three experiments were done.
(§4) RNA extraction, labeling, hybridization, and data analysis. RNA was extracted from tumor cells using the Qiagen RNeasy Kit. RNA quality and quantity was checked by the Agilent BioAnalyzer and the NanoDrop® ND-1000 spectrophotometer respectively before further manipulation. The first and second cDNA strands were synthesized from 20 ng of total RNA using the Affymetrix T7 oligo(dT) primer protocol and kit for the two-cycle amplification. To produce amplified biotin-labeled-cRNA, the cDNA was […] by in vitro transcription using the MegaScript kit from Ambion. 15.0 μg of the labeled cRNA was fragmented and re-checked for concentration using the NanoDrop® ND-1000 spectrophotometer. A hybridization cocktail containing Affymetrix spike-in controls and fragmented labeled cRNA was loaded onto the Human U133 Plus 2.0 GeneChip® oligonucleotide array. The Affymetrix array (Affymetrix, Inc. Santa Clara, Calif.) is comprised of over 1,300,000 unique oligonucleotide features that represent greater than 38,500 well-substantiated human genes. The array was hybridized for 16 hours at 45° C. with rotation at 60 rpm then washed and stained with a strepavidin, R-phycoerythrin conjugate stain on the Affymetrix Fluidicis Station 450. Signal amplification was done using biotinylated antistreptavidin. The arrays were scanned using the GeneChip® 3000 confocal laser scanner with autoloader. The images were analyzed and quality control metrics recorded using Affymetrix GCOS software version 1.4. Lastly, the expression value for each gene was calculated using dChip PM-only model based or Plier algorithm.
(§5) Pairwise comparisons were made as follows: Treated vs. Control (Y vs. D), Modified Drug vs Control (YM/ACY-H vs. D) and Treated vs. Modified Drug (Y vs. YM/ACH-Y) Cel files analyzed using the Bioconductor package of R Statistical programming. Limma analysis generated a reasonable number of changing genes between the samples.
(§6) The raw data in the .CEL files were normalized by the GCRMA method (robust multi-array analysis). It is implemented in Bioconductor (http://www.bioconductor.org/). The raw signal intensity data were normalized, background corrected and summarized based on certain statistical models, and an expression value, in log 2-scale, is obtained per chip per probe set. Then the null hypothesis was tested that there's no significant changes in gene expression between the treatment pairs. This was done by LIMMA and is also implemented in Bioconductor. It uses empirical Bayes method to estimate the variance in gene expression. One comparison was made, namely, High Grade vs. Low Grade. The raw p-values were adjusted by the Benjamnin-Hochberg method for false discovery rate (FDR) control. All data sets contained a significant number of genes with a p-value less than 0.05, which is that the probability that a gene is NOT differential expressed (false positive) is 1:20.

[2] = tested on: integrin (vitronectin receptor) expression in ES2 cells; assay: Microarray gene expression, Table 2; format: cell-based, human
Description: as §1, §2, §3, §4, §5
(§7) The raw data in the .CEL files were normalized by the GCRMA method (robust multi-array analysis). It is implemented in Bioconductor (http://www.bioconductor.org/). […]

[3] = tested on: cadherins expression in ES2 cells; assay: Microarray gene expression, Table 8; format: cell-based, human; details: for CTNNB1 catenin (cadherin-associated protein), beta 1, 88 kDa, gene expression ratio to no drug control (D): probe 201533_at; for CTNNAL1 catenin (cadherin-associated protein), alpha-like 1, gene expression ratio to no drug control (D): probe 202468_s_at; for CDH2 cadherin 2, type 1, N-cadherin (neuronal), gene expression ratio to no drug control (D): probe 203440_at; for CDH5 cadherin 5, type 2, VE-cadherin, gene expression ratio to no drug control (D): probe 204677_at; for CDH12 cadherin 12, type 2 (N-cadherin 2), gene expression ratio to no drug control (D): probe 207149_at; for CTNND1 catenin (cadherin-associated, protein), delta 1, gene expression ratio to no drug control (D): probe 208407_s_at; for CTNNA1 catenin (cadherin-associated protein), alpha 1, 102 kDa, gene expression ratio to no drug control (D): probe 210844_x_at
Description: as §1, §2, §3, §4, §5, §6

[4] = tested on: Fibronectin secretion from lung carcinoma cells (H460); assay: Fibronectin secretion (Western blot), H460 cells; format: cell-based, human; details: for % inhibition of Fibronectin secretion: H460 cells
[5] = tested on: Glypican expression in ES2 cells; assay: Microarray gene expression, Table 13; format: cell-based, human
Description: as §1, §2, §3, §4, §5, §7

[6] = tested on: tumor growth; assay: MTT anticancer activity of Y, X and hydrolysis products (FIG. 4C); format: cell-based; details: for IC50: read-out: IC50, inhibits tumor growth / anticancer activity
Description: MTT Assay. The procedure for MTT assay followed the method described by Carmichael et al. (1987) with modifications. The cells were seeded into a 96-well plate at concentration of 10,000/well for HTB-9, HeLa, H460, HCT116, T98G and OVCAR-3), 15,000/well for DU145, MCF-7, HepG2 and U2OS), and 40,000/well for K562 for 24 hours before drug-treatment. The cells were then exposed to the drugs for 48 hours (72 hours for HepG2 and U2OS, and 96 hours for MCF-7). After the drug-treatment, MTT (0.5 mg/mL) was added to cultures and incubated for an hour. The formazan (product of the reduction of tetrazolium by viable cells) formed and was dissolved with DMSO and the O.D. at 490 nm, and was measured by an ELISA reader. The MTT level of the cells before drug-treatment was also measured (T0). The % cell-growth (% G) is calculated as: % G=(TD−T0/TC−T0)×100(1), where TC or TD represents O.D. readings of control or drug-treated cells. When T0>TD, then the cytotoxicity (LC) expressed as % of the control is calculated as: % LC=(TD−T0/T0)×100(2).
(A) Alkaline Hydrolysis of Xanifolia-Y: 20 mg of Xanifolia-Y was dissolved in 0.5 mL of 1M NaOH. The solution was incubated in an 80° C. water bath for 4 hours. It was cooled to room temperature before being neutralized with 0.5 mL 1 N HCl (adjusted pH to about 3). The mixture was extracted with 2 mL 1-butanol 3 times. The butanol fractions were collected and lyophilized. The hydrolyzed saponin was further purified with HPLC in a C-18 column eluted with 25% acetonitrile.
(B) Acid Hydrolysis of Xanifolia-Y: 15 mg Xanifolia-Y was dissolved in 1 mL of Methanol. 1 mL of 2N HCl was then added. The mixture was refluxed in an 80° C. water bath for 5 hours. The solution was then neutralized by adding 2 mL of 1N NaOH (to a final pH 3-4). The aglycone was then extracted with ethylacetate 3 mL×3. The extracts were collected and pooled. Further isolation of aglycone (sugar-removed Xanifolia-Y) was achieved by HPLC with isocratic elution of 80% acetonitrile.

| SMILES | ITGA3 integrin, alpha 3, gene expression ratio to no drug control (D) [1] | ITGA6 integrin, alpha 6, gene expression ratio to no drug control (D) ([1]; probe 201656_at) | ITGAV integrin, alpha V (vitronectin receptor), gene expression ratio to no drug control (D) [1] | ITGBL1 Integrin, beta-like 1, gene expression ratio to no drug control (D) ([1]; probe 205422_s_at) | ITGA4 integrin, alpha 4, gene expression ratio to no drug control (D) ([1]; probe 205884_at) | ITGA4 integrin, alpha 4, gene expression ratio to no drug control (D) ([1]; probe 205885_s_at) | ITGA4 integrin, alpha 4, gene expression ratio to no drug control (D) ([1]; probe 213416_at) | ITGB5 Integrin, beta 5, gene expression ratio to no drug control (D) [1] | ITGBL1 Integrin, beta-like 1, gene expression ratio to no drug control (D) ([1]; probe 214927_at) | ITGA6 integrin, alpha 6, gene expression ratio to no drug control (D) ([1]; probe 215177_s_at) | CD47 antigen (integrin-associated signal transducer), gene expression ratio to no drug control (D) [1] | ITGB2 integrin, beta 2, gene expression ratio to no drug control (D) [1] | ITGBL1 Integrin, beta-like 1, gene expression ratio to no drug control (D) ([1]; probe 1557080_s_at) | expression ratio to the control, integrin family [1] | ITGAV integrin, alpha V (vitronectin receptor), gene expression ratio to no drug control (D) ([2]; probe 202351_at) | ITGAV integrin, alpha V (vitronectin receptor), gene expression ratio to no drug control (D) ([2]; probe 236251_at) | CTNNB1 catenin (cadherin-associated protein), beta 1, 88 kDa, gene expression ratio to no drug control (D) [3] | CTNNAL1 catenin (cadherin-associated protein), alpha-like 1, gene expression ratio to no drug control (D) [3] | CDH2 cadherin 2, type 1, N-cadherin (neuronal), gene expression ratio to no drug control (D) [3] | CDH5 cadherin 5, type 2, VE-cadherin, gene expression ratio to no drug control (D) [3] | other results |
| --- | --- | --- | --- | --- | --- | --- | --- | --- | --- | --- | --- | --- | --- | --- | --- | --- | --- | --- | --- | --- | --- |
| C/C=C(/C)C(=O)O[C@H]1[C@H](OC(=O)/C(C)=C\C)[C@@]2(CO)C(CC1(C)C)C1=CCC3[C@@]4(C)CC[C@H](O)C(C)(C)C4CC[C@@]3(C)[C@]1(C)[C@@H](O)[C@H]2O (stereo partly drawn) [ACH-Y] | −1.5 folds | −1.1 folds | −1.3 folds | −2.0 folds | −1.7 folds | −2.0 folds | −1.7 folds | −2.2 folds | −1.8 folds | 1.1 folds | −1.1 folds | −1.4 folds | −2.5 folds | −1.1 to −2.5 folds | −1.3 folds | −1.4 folds | 1.2 folds | −1.6 folds | 1.0 folds | −1.1 folds | CDH13 cadherin 13, H-cadherin (heart), gene expression ratio to no drug control (D) ([3]; probe 204726_at): −1.7 folds; CDH12 cadherin 12, type 2 (N-cadherin 2), gene expression ratio to no drug control (D) [3]: −2.2 folds; CTNND1 catenin (cadherin-associated, protein), delta 1, gene expression ratio to no drug control (D) [3]: −1.7 folds; CTNNA1 catenin (cadherin-associated protein), alpha 1, 102 kDa, gene expression ratio to no drug control (D) [3]: −1.2 folds; CDH13 cadherin 13, H-cadherin (heart), gene expression ratio to no drug control (D) ([3]; probe 244091_at): −1.7 folds; inhibition at 20 µg/mL ([4]; Homo sapiens, NCI-H460, H460 cells, 20 ug/ml): 28%; GPC6 Glypican 6, gene expression ratio to no drug control (D) ([5]; probe 227059_at): −1.8 folds; GPC6 Glypican 6, gene expression ratio to no drug control (D) ([5]; probe 243865_x_at): −2.0 folds; MTT activities of hydrolysed products of compound Y ([6]; FIG. 4C, 4D): very weak; IC50 ([6]; FIG. 4C): 9.5 µg/mL (≈ 14.2 µM); anticancer activity retained after removal of sugars from Y ([6]; relative to Y): 40% |
| C/C=C(/C)C(=O)O[C@H]1[C@H](OC(=O)/C(C)=C\C)[C@@]2(CO)C(CC1(C)C)C1=CCC3[C@@]4(C)CC[C@H](O[C@@H]5OC(C(=O)O)[C@@H](O)C(O[C@@H]6O[C@@H](CO)C(O)C6O)C5O[C@@H]5OC(CO)[C@H](O)C(O)C5O)C(C)(C)C4CC[C@@]3(C)[C@]1(C)[C@@H](O)[C@H]2O (stereo partly drawn) [Xanifolia-Y, 3-O-[β-D-galactopyranosyl (1→2)]-α-L-arabinofuranosy (1→3)-β-D-glucuronopyranosyl-21,22-O-diangeloyl-3β, 15α, 16α, 21β, 22α, 28-hexahydroxyolean-12-ene] | −1.6 folds | −1.5 folds | −1.8 folds | −1.9 folds | −1.6 folds | −1.7 folds | −1.6 folds | −1.5 folds | −1.7 folds | −1.6 folds | −1.6 folds | −1.6 folds | −1.7 folds | −1.5 to −1.9 folds | −1.8 folds | −1.4 folds | −1.5 folds | −1.9 folds | −1.4 folds | −1.5 folds | CDH13 cadherin 13, H-cadherin (heart), gene expression ratio to no drug control (D) ([3]; probe 204726_at): −1.8 folds; CDH12 cadherin 12, type 2 (N-cadherin 2), gene expression ratio to no drug control (D) [3]: −1.7 folds; CTNND1 catenin (cadherin-associated, protein), delta 1, gene expression ratio to no drug control (D) [3]: −1.5 folds; CTNNA1 catenin (cadherin-associated protein), alpha 1, 102 kDa, gene expression ratio to no drug control (D) [3]: −1.4 folds; CDH13 cadherin 13, H-cadherin (heart), gene expression ratio to no drug control (D) ([3]; probe 244091_at): −2.0 folds; % inhibition of Fibronectin secretion ([4]; 20 ug/ml): 20-60%; % inhibition of Fibronectin secretion ([4]; 20 ug/ml, listed as Y): over 60%; inhibition at 10 µg/mL ([4]; Homo sapiens, NCI-H460, H460 cells, 10 ug/ml): 19%; GPC6 Glypican 6, gene expression ratio to no drug control (D) ([5]; probe 227059_at): −2.2 folds; GPC6 Glypican 6, gene expression ratio to no drug control (D) ([5]; probe 243865_x_at): −2.7 folds; IC50 ([6]; FIG. 4C): 4 µg/mL (≈ 3.5 µM); IC50 [6]: 1.5 to 4.5 µg/mL (≈ 1.31 to 3.94 µM) |
